The numbers were not newly measured in US20250248977A1, “Tablet Formulation Of Tafamidis Or Pharmaceutically Acceptable Salt Thereof” (Navinta LLC, priority 2024, published 2025), which cites them from elsewhere.

For the compound `O=C(O)c1ccc2nc(-c3cc(Cl)cc(Cl)c3)oc2c1` [Tafamidis, 2-(3,5-dichlorophenyl)-1,3-benzoxazole-6-carboxylic acid], the aqueous solubility entry is recorded as “low”.
